In US11267810B2, “Aminopyrimidine compound and composition comprising same and use thereof” (Shenzhen TargetRx, Inc., priority 2017, dated 2022):
Like-named read-outs stand apart in the source and are kept apart here.

Legend:
EGFR [L858R/T790M] = EGFR [L858R/T790M] (Homo sapiens (Human), UniProt P00533, L858R/T790M); assay: EGFR [L858R/T790M] kinase assay (HTRF Kinase TK kit); format: biochemical
Description: (§1) WT EGFR (Cana, Cat. No. 08-115), EGFR [L858R] (Carna, Cat. No. 08-502), EGFR [L858R/T790M] (Carna, Cat. No. 08-510), ATP (Sigma, Cat. No. A7699-1G), DMSO (Sigma, Cat. No. D2650), 96-well plate (Corning, Cat. No. 3365), 384-well plate (Greiner, Cat. No. 784076), HTRF Kinase TK Kit (Cisbio, Cat. No. 62TK0PEJ), Erlotinib (Selleckchem, Cat. No. S7787), EGFR [d746-750] (Life Technologies, Cat. No. PV6178), 5× Kinase Buffer A (Life Technologies, Cat. No. PV3186), Kinase Tracer 199 (Life Technologies, Cat. No. PV5830), LanthaScreen® Eu-anti-GST antibody (Life Technologies, Cat. No. PV5594).
(§2) Compound preparation: the test compound was dissolved in DMSO to make a 20 mM stock solution. Then, it was diluted in DMSO with a 3-fold series gradient dilution for 10 times. The dilutions were diluted 10 fold with buffer when dosing.
(§3) WT EGFR and EGFR [L858R/T790M] kinase assay: WT EGFR or EGFR [L858R/T790M] kinase was mixed with different concentrations of pre-diluted compounds for 10 minutes in 5× Kinase Buffer A in duplicate. The corresponding substrate and ATP were added and reacted at room temperature for 20 minutes (in which a negative and a positive control were set: the negative control is blank and the positive control is AZD9291). After the reaction, the detection reagent (the reagent in the HTRF Kinase TK kit) was added, and after incubation at room temperature for 30 minutes, the enzyme activity in the presence of the compounds of the present disclosure at each concentration was measured by an Evnvision microplate reader, and the inhibition of the enzyme by the compound at each concentrations were calculated. The inhibitions of the enzyme activity by the compounds at different concentrations were then fitted using Graphpad 5.0 software according to the four-parameter equation, and the IC50 values were calculated.

WT EGFR = WT EGFR (Homo sapiens (Human), UniProt P00533); assay: WT EGFR kinase assay (HTRF Kinase TK kit); format: biochemical
Chain of WT EGFR (P00533 25-1210): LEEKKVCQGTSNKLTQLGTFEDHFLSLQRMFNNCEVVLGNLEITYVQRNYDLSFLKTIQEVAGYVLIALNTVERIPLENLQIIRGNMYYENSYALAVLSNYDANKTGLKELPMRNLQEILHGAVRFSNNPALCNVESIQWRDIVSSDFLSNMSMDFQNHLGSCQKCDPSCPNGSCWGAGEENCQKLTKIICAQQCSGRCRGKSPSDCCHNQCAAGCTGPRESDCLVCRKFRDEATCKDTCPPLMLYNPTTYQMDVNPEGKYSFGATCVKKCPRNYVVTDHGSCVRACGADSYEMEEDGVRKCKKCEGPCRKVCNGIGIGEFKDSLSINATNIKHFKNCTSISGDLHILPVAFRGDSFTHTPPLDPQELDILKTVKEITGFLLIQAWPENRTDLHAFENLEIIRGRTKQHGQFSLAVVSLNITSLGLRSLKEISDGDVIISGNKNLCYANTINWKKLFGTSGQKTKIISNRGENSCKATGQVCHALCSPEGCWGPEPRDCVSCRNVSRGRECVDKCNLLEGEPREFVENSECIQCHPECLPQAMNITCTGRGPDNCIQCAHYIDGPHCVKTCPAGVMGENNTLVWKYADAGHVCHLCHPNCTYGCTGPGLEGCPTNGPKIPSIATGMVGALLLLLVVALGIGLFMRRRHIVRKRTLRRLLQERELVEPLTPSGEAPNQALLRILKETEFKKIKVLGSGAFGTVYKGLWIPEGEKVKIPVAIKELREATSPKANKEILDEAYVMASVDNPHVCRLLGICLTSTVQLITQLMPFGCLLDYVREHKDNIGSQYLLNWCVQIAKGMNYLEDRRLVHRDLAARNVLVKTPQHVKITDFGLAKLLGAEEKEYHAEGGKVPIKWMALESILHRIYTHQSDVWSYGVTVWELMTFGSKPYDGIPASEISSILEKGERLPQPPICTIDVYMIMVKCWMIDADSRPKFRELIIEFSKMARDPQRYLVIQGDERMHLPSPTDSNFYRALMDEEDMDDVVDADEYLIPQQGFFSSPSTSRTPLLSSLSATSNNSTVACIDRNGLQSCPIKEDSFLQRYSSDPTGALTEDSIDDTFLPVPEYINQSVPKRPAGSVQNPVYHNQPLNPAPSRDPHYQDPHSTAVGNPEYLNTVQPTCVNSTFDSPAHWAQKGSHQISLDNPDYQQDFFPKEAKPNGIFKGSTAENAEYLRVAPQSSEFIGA
Description: as §1, §2, §3

[1] = test system: lung cancer cells NCI-H1975 (L858R/T790M); assay: MTS cell viability assay, NCI-H1975; format: cell-based; details: Homo sapiens, 72 hours
Protocol: (§4) Cell line: Skin cancer cell line A431 (purchased from the American Type Culture Collection (ATCC)); lung cancer cells NCI-H1975 (purchased from the American Type Culture Collection (ATCC)) and HCC827 (purchased from the American Type Culture Collection (ATCC)). All of the cells were cultured in RPMI1640 medium containing 10% fetal bovine serum, 100 U/ml penicillin, and 100 μg/ml streptomycin.
(§5) Reagents and materials: RPMI-1640 (GIBCO, Cat. No. A10491-01); fetal bovine serum (GIBCO, Cat. No. 10099141); 0.25% trypsin-EDTA (GIBCO, Cat. No. 25200); penicillin-streptomycin, liquid (GIBCO, Cat. No. 15140-122); DMSO (Sigma, Cat. No. D2650); MTS Test Kit (Promega, Cat. No. G3581), 96-well plate (Corning, Cat. No. 3365).
(§6) Compound preparation: the test compound was dissolved in DMSO to make a 20 mM stock solution and stored at −20° C. It was diluted in DMSO with a 3-fold series gradient dilution for 10 times. The dilutions were diluted 4 fold with cell culture medium.
(§7) MTS cell viability assay: cells in logarithmic growth phase was digested with 0.25% trypsin-EDTA, and 150 μl of the cells was inoculated in 96-well plates at an optimized density. After 24 hours, the compound diluted 4 fold by adding the medium, 50 μl/well (generally 10 Concentrations were selected: 100, 33.3, 11.1, 3.70, 1.23, 0.412, 0.137, 0.0457, 0.0152, 0.00508 μM). A well added with the same volume of 0.5% DMSO was used as a control. After the cells were cultured for further 72 hours, the cell viability was detected with MTS.
(§8) Specific procedure: cells were adhered, the medium was discarded, and a mixture containing 20 μL MTS and 100 μL medium was added to each well. The OD490 was detected after being placed in the incubator for 1-4 hours, and the OD650 value was used as a reference. A dose-effect curve was prepared using GraphPad Prism software and IC50 was calculated.

[2] = test system: lung cancer cells HCC827 (Del19); assay: MTS cell viability assay, HCC827; format: cell-based; details: Homo sapiens, 72 hours
Protocol: as §4, §5, §6, §7, §8

[3] = test system: Skin cancer cell line A431 (WT); assay: MTS cell viability assay, A431; format: cell-based; details: Homo sapiens, A-431, 72 hours
Protocol: as §4, §5, §6, §7, §8

[4] = Pharmacokinetic experiment in rats; format: in vivo, Sprague-Dawley rats; details: rat; for AUC(0-t) / Cmax / Tmax / half-life / AUC(0-inf) / clearance / MRT inf / Vd / bioavailability: male, Sprague-Dawley, plasma; for AUC(0-inf): read-out: AUCINF—pred; for clearance: read-out: Cl—pred (converted); for MRT inf: read-out: MRTINF—pred; for Vd: read-out: Vz—pred; for bioavailability: PO 10 mg/kg vs IV 0.5 mg/kg
Protocol: Six male Sprague-Dawley rats, 7 to 8 weeks old, weighing approximately 210 g, were divided into 2 groups with 3 rats in each group. The pharmacokinetic differences were compared after administering to the rats a single dose of compounds through vein (in vein 0.5 mg/kg) or mouth (orally 10 mg/kg).
The rats were fed with standard feed, given water, and fasted 16 hours before the experiment. The drugs were dissolved with PEG400 and dimethyl sulfoxide. Orbital blood was collected at the time point of 0.083, 0.25, 0.5, 1, 2, 4, 6, 8, 12 and 24 hours after administration.
The rats were anesthetized for a short time after inhaling ether, and 300 μL of blood sample was collected from the orbit and put into a test tube, which contains 30 μL of 1% heparin salt solution. The test tubes were dried overnight at 60° C. prior to use. After the blood sample collection at the last time point, the rats were killed after the ether anesthesia.
Immediately after the blood sample collection, the test tubes were gently inverted at least 5 times to ensure the fully mixing and placed them on ice. The blood samples were centrifuged at 4° C., 5000 rpm for 5 minutes to separate the plasma from the red blood cells. 100 μL of plasma was pipetted into a clean plastic centrifuge tube, with the name of the compound and time point on it. The plasma was stored at −80° C. before analysis, and LC-MS/MS was used to determine the concentration of the compounds disclosed herein in plasma. Pharmacokinetic parameters were calculated based on the plasma concentrations of each animal at different time points.

EGFR mutant kinase = details: cited from earlier work

Chain of EGFR [L858R/T790M] (P00533 25-1210 T790M/L858R): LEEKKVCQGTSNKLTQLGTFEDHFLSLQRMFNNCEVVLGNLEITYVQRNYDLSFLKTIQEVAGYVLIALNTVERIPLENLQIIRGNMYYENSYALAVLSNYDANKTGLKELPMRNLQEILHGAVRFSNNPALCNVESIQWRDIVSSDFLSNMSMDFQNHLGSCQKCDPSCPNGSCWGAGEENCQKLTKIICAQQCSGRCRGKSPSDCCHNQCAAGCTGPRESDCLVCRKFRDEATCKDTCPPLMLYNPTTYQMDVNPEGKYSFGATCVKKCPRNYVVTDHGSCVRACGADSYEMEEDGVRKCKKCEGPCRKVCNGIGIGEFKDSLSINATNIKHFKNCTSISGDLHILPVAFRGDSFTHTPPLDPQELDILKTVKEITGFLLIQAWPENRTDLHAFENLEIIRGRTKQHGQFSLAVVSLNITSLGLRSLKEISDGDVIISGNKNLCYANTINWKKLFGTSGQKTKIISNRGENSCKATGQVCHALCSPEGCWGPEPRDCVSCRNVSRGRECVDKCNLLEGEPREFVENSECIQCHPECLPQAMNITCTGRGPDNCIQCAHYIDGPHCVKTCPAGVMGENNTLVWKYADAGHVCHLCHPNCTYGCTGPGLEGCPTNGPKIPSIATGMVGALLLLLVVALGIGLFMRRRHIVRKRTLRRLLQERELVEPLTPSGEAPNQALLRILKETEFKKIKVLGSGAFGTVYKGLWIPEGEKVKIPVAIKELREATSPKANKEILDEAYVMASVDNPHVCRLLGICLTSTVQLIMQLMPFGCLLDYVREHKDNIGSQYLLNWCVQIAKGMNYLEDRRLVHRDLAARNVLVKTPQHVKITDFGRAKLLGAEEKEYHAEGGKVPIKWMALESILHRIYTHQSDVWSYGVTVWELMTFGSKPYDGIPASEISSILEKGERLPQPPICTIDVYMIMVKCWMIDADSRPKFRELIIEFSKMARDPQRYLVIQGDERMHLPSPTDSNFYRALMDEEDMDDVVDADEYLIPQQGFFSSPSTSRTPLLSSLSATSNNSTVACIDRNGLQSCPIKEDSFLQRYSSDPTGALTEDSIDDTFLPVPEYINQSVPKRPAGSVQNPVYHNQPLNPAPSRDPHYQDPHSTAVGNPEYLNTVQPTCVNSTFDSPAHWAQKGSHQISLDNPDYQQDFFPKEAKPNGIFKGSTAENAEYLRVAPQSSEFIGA

| IC50 (EGFR [L858R/T790M]) [nM] | IC50 (WT EGFR) [nM] | IC50 [1] [nM] | IC50 [2] [nM] | IC50 [3] [nM] | AUC(0-t) ([4]; IV 0.5 mg/kg single dose) [ng·h/mL] | Cmax ([4]; IV 0.5 mg/kg single dose) [ng/mL] | Tmax ([4]; IV 0.5 mg/kg single dose) [h] | half-life ([4]; IV 0.5 mg/kg single dose) [h] | AUC(0-inf) ([4]; IV 0.5 mg/kg single dose) [ng·h/mL] | clearance ([4]; IV 0.5 mg/kg single dose) [mL/min/kg] | MRT inf ([4]; IV 0.5 mg/kg single dose) [h] | Vd ([4]; IV 0.5 mg/kg single dose) [L/kg] | AUC(0-t) ([4]; PO 10 mg/kg single dose) [ng·h/mL] | Cmax ([4]; PO 10 mg/kg single dose) [ng/mL] | Tmax ([4]; PO 10 mg/kg single dose) [h] | half-life ([4]; PO 10 mg/kg single dose) [h] | AUC(0-inf) ([4]; PO 10 mg/kg single dose) [ng·h/mL] | MRT inf ([4]; PO 10 mg/kg single dose) [h] | bioavailability [4] [%] | Structure (SMILES) | other results |
| --- | --- | --- | --- | --- | --- | --- | --- | --- | --- | --- | --- | --- | --- | --- | --- | --- | --- | --- | --- | --- | --- |
| < 0.3 | < 2 | 3.62 | 1.56 | 200 to 450 |  |  |  |  |  |  |  |  |  |  |  |  |  |  |  | [2H]c1c(C([2H])([2H])N(C)C)c(-c2ccccc2)nn1-c1ccnc(Nc2cc(NC(=O)C=C)c(N3CCOCC3)cc2OC)n1 [Compound T-1, N-(5-((4-(4-((dimethylamino)methyl-d2)-3-phenyl-1H-pyrazol-1-yl-5-d)pyrimidin-2-yl)amino)-4-methoxy-2-morpholinophenyl)acrylamide] |  |
| < 0.3 | < 2 | 3.57 | 1.98 | 200 to 450 |  |  |  |  |  |  |  |  |  |  |  |  |  |  |  | [2H]c1c([2H])c([2H])c(-c2nn(-c3ccnc(Nc4cc(NC(=O)C=C)c(N5CCOCC5)cc4OC)n3)cc2CN(C)C)c([2H])c1[2H] [Compound T-2, N-(5-((4-(4-((dimethylamino)methyl)-3-(phenyl-d5)-1H-pyrazol-1-yl)pyrimidin-2-yl)amino)-4-methoxy-2-morpholinophenyl)acrylamide] |  |
| < 0.3 | < 2 | 5.02 | 2.5 | 200 to 450 |  |  |  |  |  |  |  |  |  |  |  |  |  |  |  | [2H]C([2H])([2H])N(Cc1cn(-c2ccnc(Nc3cc(NC(=O)C=C)c(N4CCOCC4)cc3OC)n2)nc1-c1ccccc1)C([2H])([2H])[2H] [Compound T-4, N-(5-((4-(4-((bis(methyl-d3)amino)methyl)-3-phenyl-1H-pyrazol-1-yl)pyrimidin-2-yl)amino)-4-methoxy-2-morpholinophenyl)acrylamide] |  |
| < 0.3 | < 2 | 4.23 | 2 | 200 to 450 |  |  |  |  |  |  |  |  |  |  |  |  |  |  |  | [2H]c1c([2H])c([2H])c(-c2nn(-c3ccnc(Nc4cc(NC(=O)C=C)c(N5CCOCC5)cc4OC)n3)cc2CN(C([2H])([2H])[2H])C([2H])([2H])[2H])c([2H])c1[2H] [Compound T-6, N-(5-((4-(4-((bis(methyl-d3)amino)methyl)-3-(phenyl-d5)-1H-pyrazol-1-yl)pyrimidin-2-yl)amino)-4-methoxy-2-morpholinophenyl)acrylamide] |  |
| < 0.3 | < 2 | 4.7 | 4.2 | 200 to 450 | 477 | 323 | 0.08 | 3.78 | 498 | 17.5 | 2.95 | 5.73 | 1600 | 115 | 1.33 | 7.55 | 1800 | 9.19 | 16.7 | C=CC(=O)Nc1cc(Nc2nccc(-n3cc(CN(C)C)c(-c4ccccc4)n3)n2)c(OC)cc1N1CCOCC1 [Compound T-0, reference compound] | Cl—pred ([4]; PO 10 mg/kg single dose): 94.2 mL/min/kg; Vz—pred ([4]; PO 10 mg/kg single dose): 61.56 L/kg; inhibitory activity against EGFR mutant kinase (in words) (EGFR mutant kinase): significant inhibitory activity |
| < 0.3 | < 2 | 4.53 | 2.27 | 200 to 450 | 436 | 299 | 0.08 | 3.56 | 456 | 18.5 | 3.34 | 5.71 | 1650 | 120 | 4 | 7.48 | 1920 | 8.67 | 18.9 | [2H]C([2H])([2H])Oc1cc(N2CCOCC2)c(NC(=O)C=C)cc1Nc1nccc(-n2cc(CN(C)C)c(-c3ccccc3)n2)n1 [Compound T-3, N-(5-((4-(4-((dimethylamino)methyl)-3-phenyl-1H-pyrazol-1-yl)pyrimidin-2-yl)amino)-4-(methoxy-d3)-2-morpholinophenyl)acrylamide] | Cl—pred ([4]; PO 10 mg/kg single dose): 88 mL/min/kg; Vz—pred ([4]; PO 10 mg/kg single dose): 56.99 L/kg; Cmax, AUClast and oral availability (F %) compared with compound T-0 (in words) ([4]; orally): better metabolic parameters |
